Laboratory results as given in article PMC4789100 (Environment international, 2009).
Values joined by “and” are separate entries in the source; they are usually repeats but may differ in a detail not shown here. Equal values may be shown once. “Also recorded” adds a separate entry of the source. Read-outs that look alike come from different tables or passages of the source.

Legend:
[1] = target: T1, sheep placental cytosolic estrogen sulfotransferase (estradiol as substrate) (Ovis aries, UniProt A0ACI6NYW9); type: biochemical
T1 sequence (A0ACI6NYW9 1-296): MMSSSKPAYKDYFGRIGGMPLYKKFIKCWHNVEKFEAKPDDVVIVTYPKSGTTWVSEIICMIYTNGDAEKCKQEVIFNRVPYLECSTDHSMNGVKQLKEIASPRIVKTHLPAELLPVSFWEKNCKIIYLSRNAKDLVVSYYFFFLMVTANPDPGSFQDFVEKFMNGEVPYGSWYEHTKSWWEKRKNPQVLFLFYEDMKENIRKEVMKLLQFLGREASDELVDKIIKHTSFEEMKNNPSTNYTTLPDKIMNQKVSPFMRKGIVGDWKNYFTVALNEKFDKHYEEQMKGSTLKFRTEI

[2] = tested on: expressed human SULT1E1; conditions: cited from earlier work
[3] = cited from earlier work
[4] = Triclosan sulfonation in placental cytosol with 35S-PAPS; type: in vitro ADME, sheep; conditions: sheep, sheep placental cytosol, pH 7.4
[5] = tested on: sheep placental cytosol; assay: as above; type: in vitro ADME
[6] = tested on: sheep placental microsomes; assay: Triclosan glucuronidation in placental microsomes with 14C-UDPGA; type: in vitro ADME; conditions: 1 μM Triclosan; limit of detection <0.5 pmol/min/mg protein
[7] = estradiol as substrate, mean±S.D., n=3

Work on `O=C(Nc1ccc(Cl)c(Cl)c1)Nc1ccc(Cl)cc1O` [2′OH-TCC, 2′-hydroxy-triclocarban] yielded an IC50 ([1]; read-out: IC50 for inhibition of estradiol sulfonation, 1 nM estradiol) of 310 ± 40 nM.
In the case of `C[C@]12CC[C@@H]3c4ccc(O)cc4CC[C@H]3[C@@H]1CC[C@@H]2O` [Estradiol, 17-beta-estradiol], the “Estradiol concentration above which partial substrate inhibition is displayed” value ([2]; ref Zhang et al.,1998) is listed as “above 20 nM”, the “Ki, constant for partial inhibition of estradiol sulfotransferase activity by substrate” value [1, 7] is listed as 54.7 ± 25.3 nM and the “Vmin, plateau low rate at high estradiol concentrations” value [1, 7] is listed as 12.1±7.7 pmol/min/mg protein.
For `Oc1c(Cl)cc(-c2ccc(Cl)c(Cl)c2)cc1Cl` [4′OH-CB79, 4-hydroxy-3,3′,4′,5-tetrachlorobiphenyl], the IC50 ([2]; ref Kester et al., 2000) is listed as 0.2 to 0.6 nM.
In the case of `Oc1cc(Cl)ccc1Oc1ccc(Cl)cc1Cl` [Triclosan, 5-chloro-2(2,4-dichlorophenoxy)-phenol], the “Reported mean concentration of total Triclosan” value (from here on “Reported mean concentration”) ([3]; Breast milk, Sweden, Control female, ref Allmyr et al., 2006b) is listed as 0.02 ng/g and 0.07 nM, the “Reported mean concentration” value ([3]; Breast milk, Sweden, Exposed female, ref Allmyr et al., 2006b) is listed as 0.54 ng/g and 1.87 nM and the “Reported mean concentration” value ([3]; Serum, Australia, Female 2002, ref Allmyr et al., 2008) is listed as 14 ng/g and 48.4 nM. The “Reported mean concentration” value ([3]; Serum, Australia, Female 2004, ref Allmyr et al., 2008) was 7.2 ng/g and 24.9 nM, the “Reported mean concentration” value ([3]; Serum, Australia, Male 2004, ref Allmyr et al., 2008) was 12 ng/g and 41.5 nM and the “Reported mean concentration” value ([3]; Serum, Sweden, Control female, ref Allmyr et al., 2006b) was 0.07 ng/g and 0.25 nM. For the same compound, the “Reported mean concentration” value ([3]; Serum, Sweden, Exposed female, ref Allmyr et al., 2006b) was 16 ng/g and 55.3 nM, the “Reported mean concentration” value ([3]; Urine, United States, Female, ref Calafat et al., 2008) was 10.6 μg/L and 36.6 nM and the “Reported mean concentration” value ([3]; Urine, United States, Male, ref Calafat et al., 2008) was 16.2 μg/L and 56.0 nM. For the same compound, the Km at 15 min [4] was 1.14 ± 0.18 µM, the “Sulfonation apparent Vmax” value ([5]; Triclosan 0.1 to 10 μM, mean±S.D. of three individual samples) was 160±26 pmol/min/mg protein and the “Fraction of Triclosan that would be sulfonated” value ([5]; conditions of estradiol or estrone sulfonation assay with 1 nM Triclosan) was “less than 0.1%”. The Glucuronidation [6] was “not a substrate for glucuronidation; also recorded: no detectable glucuronidation”.
